Measured values as given in patent US20240317777A1, “NOVEL MACROCYCLIC AMINOPYRAZOLE COMPOUNDS AS CDK2 INHIBITORS” (Accutar Biotechnology Inc., priority 2023, published 2024).
Where two headings read alike, the source gives them in different places.

Legend:
[1] = biological target: CDK2-CYCLIN E1 (Homo sapiens, UniProt P24941); assay: CDK protein kinase inhibition by ADP-Glo assay, CDK2-CYCLIN E1; format: biochemical; conditions: read-out: CDK2-CYCLINE, IC50
Method: (§1) CDK Protein Kinase Inhibition by ADP-Glo Assay
(§2) This ADP-Glo assay measures ADP formed from a kinase reaction and indirectly quantifies the phosphorylation of peptide substrates by the CDK/cyclin protein complexes. The typical assays were carried out in Nanosyn by combining kinase/cyclin complexes, substrates, compounds, and cofactors (ATP and Mg2+) in a well of a 384-well microtiter plate (Corning 3824) and incubating at 22° C. (Table 1). At the end of the incubation, the reaction is quenched, and conversion is detected by luminescence using the Promega ADP-Glo™ Kinase Assay kit (catalog #V9102).
(§3) Final assay buffer mixture contains: • 100 mM HEPES, pH 7.5 • 0.1% BSA • 0.01% Triton X-100 • 1 mM DTT • 5 mM MgCl2 • 10 μM Sodium Orthovanadate • 100 μM Beta-Glycerophosphate • 1000 μM Ultra Pure ATP (provided in the Promega ADP-Glo™ Kinase Assay kit) • 1% DMSO (from compound)
(§4) Upon completion, 5 μL of the ADP Glo reagent was added to each well and the plate was further incubated at room temperature for 45 minutes. 10 uL of the Kinase Detection Reagent was subsequently added to each well. After 10 minutes of incubation, the plate was read and analyzed on the BioTek Synergy microplate reader using BioTek Gen5 software.

[2] = tested on: CCNE1-amplified OVCAR3 cells; assay: Cell growth inhibition of CCNE1-amplified OVCAR3 cells (CellTiter-Glo); format: cell-based; conditions: Homo sapiens, OVCAR-3, 144 h, 6 days
In short: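 Growth read-out was CellTiter-Glo luminescence, taken after 10 min at room temperature at the end of a 6-day compound exposure at 37 °C. Compounds were diluted from DMSO stocks across various concentrations.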

[3] = tested on: Phospho-Rb (Ser807/811) in OVCAR3 cells; assay: Phospho-Rb expression inhibition in OVCAR3 cells quantified by In Cell Western; format: cell-based; conditions: Homo sapiens, OVCAR-3, 24 hours, read-out: OVCAR-3 pRb IC50
In short: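 In-cell western: after 24 h compound exposure at 37° C, fixed OVCAR3 cells co-stained for pRb Ser807/811 (800 nm channel) and total Rb (680 nm channel), imaged by LI-COR Odyssey.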

[4] = biological target: CDK1-CYCLIN B (Homo sapiens, UniProt P06493); assay: CDK protein kinase inhibition by ADP-Glo assay, CDK1-CYCLIN B; format: biochemical; conditions: for IC50: read-out: CDK1-CYCLINB, IC50; for CDK2 Fold selectivity against CDK1: fold selectivity for CDK2 over CDK1, recombinant CDK kinases
CDK1-CYCLIN B, sequence (P06493 whole entry): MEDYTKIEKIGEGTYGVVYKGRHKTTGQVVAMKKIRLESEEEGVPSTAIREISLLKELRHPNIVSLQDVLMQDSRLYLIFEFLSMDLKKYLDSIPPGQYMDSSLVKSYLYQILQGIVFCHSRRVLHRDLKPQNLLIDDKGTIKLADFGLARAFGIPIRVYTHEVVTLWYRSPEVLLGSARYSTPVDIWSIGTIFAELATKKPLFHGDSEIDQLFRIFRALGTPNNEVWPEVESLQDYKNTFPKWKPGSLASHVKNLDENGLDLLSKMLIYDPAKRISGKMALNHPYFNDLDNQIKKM
CDK1-CYCLIN B, sequence (P14635 whole entry partner): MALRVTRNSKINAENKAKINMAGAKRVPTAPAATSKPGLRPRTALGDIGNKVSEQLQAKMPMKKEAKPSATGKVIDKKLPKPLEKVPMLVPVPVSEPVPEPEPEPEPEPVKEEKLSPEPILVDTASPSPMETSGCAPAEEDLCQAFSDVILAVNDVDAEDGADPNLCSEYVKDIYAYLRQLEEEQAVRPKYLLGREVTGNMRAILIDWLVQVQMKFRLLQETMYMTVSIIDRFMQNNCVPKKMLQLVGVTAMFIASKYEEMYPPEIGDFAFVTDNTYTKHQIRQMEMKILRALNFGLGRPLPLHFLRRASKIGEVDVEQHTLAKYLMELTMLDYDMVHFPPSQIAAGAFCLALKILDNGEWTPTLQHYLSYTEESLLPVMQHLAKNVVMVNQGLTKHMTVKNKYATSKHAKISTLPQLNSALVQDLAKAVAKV
Method: as §1, §2, §3, §4

[5] = biological target: CDK6-CYCLIN D3 (Homo sapiens, UniProt Q00534); assay: CDK protein kinase inhibition by ADP-Glo assay, CDK6-CYCLIN D3; format: biochemical; conditions: for IC50: read-out: CDK6-CYCLIND3, IC50; for CDK2 Fold selectivity against CDK6: fold selectivity for CDK2 over CDK6, recombinant CDK kinases
CDK6-CYCLIN D3, sequence (Q00534 whole entry): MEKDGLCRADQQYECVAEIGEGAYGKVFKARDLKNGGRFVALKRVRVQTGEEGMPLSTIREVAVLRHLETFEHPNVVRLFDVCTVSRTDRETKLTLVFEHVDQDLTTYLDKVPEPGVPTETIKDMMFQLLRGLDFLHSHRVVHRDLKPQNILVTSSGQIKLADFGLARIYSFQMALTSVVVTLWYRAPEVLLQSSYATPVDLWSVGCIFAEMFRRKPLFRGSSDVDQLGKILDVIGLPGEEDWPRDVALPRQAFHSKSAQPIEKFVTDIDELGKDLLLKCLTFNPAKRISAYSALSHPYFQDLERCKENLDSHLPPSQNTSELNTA
CDK6-CYCLIN D3, sequence (P30281 whole entry partner): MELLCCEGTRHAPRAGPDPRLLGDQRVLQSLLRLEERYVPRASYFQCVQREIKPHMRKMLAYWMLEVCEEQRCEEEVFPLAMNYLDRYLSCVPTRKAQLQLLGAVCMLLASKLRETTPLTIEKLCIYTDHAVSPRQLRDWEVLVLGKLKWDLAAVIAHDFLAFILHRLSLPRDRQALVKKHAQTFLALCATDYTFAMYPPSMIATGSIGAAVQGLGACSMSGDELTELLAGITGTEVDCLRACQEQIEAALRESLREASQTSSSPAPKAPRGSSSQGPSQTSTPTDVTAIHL
Method: as §1, §2, §3, §4

[6] = biological target: CDK9-CYCLIN T1 (Homo sapiens, UniProt P50750); assay: CDK protein kinase inhibition by ADP-Glo assay, CDK9-CYCLIN T1; format: biochemical; conditions: for CDK2 Fold selectivity against CDK9: fold selectivity for CDK2 over CDK9, recombinant CDK kinases
CDK9-CYCLIN T1, sequence (P50750 whole entry): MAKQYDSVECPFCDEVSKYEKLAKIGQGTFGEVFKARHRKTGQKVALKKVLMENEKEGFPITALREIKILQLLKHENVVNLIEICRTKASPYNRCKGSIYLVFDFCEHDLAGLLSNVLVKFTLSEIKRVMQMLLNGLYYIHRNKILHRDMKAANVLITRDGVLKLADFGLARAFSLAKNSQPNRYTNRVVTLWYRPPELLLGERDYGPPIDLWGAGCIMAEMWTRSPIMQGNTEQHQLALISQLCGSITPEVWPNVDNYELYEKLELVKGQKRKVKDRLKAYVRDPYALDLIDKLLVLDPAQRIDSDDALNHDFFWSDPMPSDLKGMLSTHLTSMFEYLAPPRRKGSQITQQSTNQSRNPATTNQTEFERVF
CDK9-CYCLIN T1, sequence (O60563 whole entry partner): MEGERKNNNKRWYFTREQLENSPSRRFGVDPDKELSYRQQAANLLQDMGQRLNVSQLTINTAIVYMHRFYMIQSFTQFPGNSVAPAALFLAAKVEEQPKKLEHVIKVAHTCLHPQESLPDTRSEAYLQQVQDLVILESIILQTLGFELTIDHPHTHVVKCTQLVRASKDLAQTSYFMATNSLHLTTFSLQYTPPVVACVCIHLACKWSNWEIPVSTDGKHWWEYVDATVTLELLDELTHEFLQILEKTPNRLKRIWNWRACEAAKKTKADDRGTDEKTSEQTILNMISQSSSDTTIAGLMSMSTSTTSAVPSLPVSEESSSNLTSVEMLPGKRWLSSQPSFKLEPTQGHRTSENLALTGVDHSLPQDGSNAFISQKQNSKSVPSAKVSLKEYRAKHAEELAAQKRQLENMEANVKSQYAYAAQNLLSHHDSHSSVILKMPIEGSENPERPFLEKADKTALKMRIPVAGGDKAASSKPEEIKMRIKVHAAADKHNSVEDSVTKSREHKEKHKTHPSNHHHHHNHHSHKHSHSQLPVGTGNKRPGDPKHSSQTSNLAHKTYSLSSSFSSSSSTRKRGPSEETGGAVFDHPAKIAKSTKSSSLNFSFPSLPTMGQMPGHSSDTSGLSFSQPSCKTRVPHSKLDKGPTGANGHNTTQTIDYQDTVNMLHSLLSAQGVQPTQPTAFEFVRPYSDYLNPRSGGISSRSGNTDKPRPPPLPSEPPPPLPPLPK
Method: as §1, §2, §3, §4

[7] = biological target: CDK4-CYCLIN D1 (Homo sapiens, UniProt P11802); assay: CDK protein kinase inhibition by ADP-Glo assay, CDK4-CYCLIN D1; format: biochemical; conditions: for IC50: read-out: CDK4-CYCLIND1, IC50; for CDK2 Fold selectivity against CDK4: fold selectivity for CDK2 over CDK4, recombinant CDK kinases
CDK4-CYCLIN D1, sequence (P11802 whole entry): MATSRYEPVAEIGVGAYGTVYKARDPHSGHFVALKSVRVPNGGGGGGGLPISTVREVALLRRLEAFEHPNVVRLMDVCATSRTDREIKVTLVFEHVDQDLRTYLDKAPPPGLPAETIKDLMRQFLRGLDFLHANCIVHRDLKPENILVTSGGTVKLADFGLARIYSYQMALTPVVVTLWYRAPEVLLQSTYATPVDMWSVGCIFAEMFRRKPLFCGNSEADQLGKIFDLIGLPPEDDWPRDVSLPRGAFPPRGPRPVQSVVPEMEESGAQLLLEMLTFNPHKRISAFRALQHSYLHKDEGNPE
CDK4-CYCLIN D1, sequence (P24385 whole entry partner): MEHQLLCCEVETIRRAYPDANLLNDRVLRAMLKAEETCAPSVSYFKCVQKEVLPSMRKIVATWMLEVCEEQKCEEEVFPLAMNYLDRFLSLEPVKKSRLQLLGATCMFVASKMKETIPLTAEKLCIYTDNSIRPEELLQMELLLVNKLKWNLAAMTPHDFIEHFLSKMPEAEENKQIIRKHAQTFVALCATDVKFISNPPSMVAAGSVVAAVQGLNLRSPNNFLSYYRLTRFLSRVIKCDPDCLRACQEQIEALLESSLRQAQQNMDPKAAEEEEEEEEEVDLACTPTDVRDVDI
Method: as §1, §2, §3, §4

[8] = Table 37, recombinant CDK kinase
[9] = Table 37, recombinant CDK kinase, read-out: CDK9-CYCLINT1, IC50
[10] = Table 35, recombinant CDK kinase
[11] = Table 35, recombinant CDK kinase, read-out: CDK9-CYCLINT1, IC50

Row | Compound | IC50 [1, 8] [nM] | IC50 [2] [nM] | IC50 [3] [nM] | IC50 [4, 8] [nM] | CDK2 Fold selectivity against CDK1 ([4]; Table 38) | IC50 [5, 8] [nM] | CDK2 Fold selectivity against CDK6 ([5]; Table 38) | IC50 [6, 9] [nM] | CDK2 Fold selectivity against CDK9 ([6]; Table 38) | IC50 [7, 8] [nM] | CDK2 Fold selectivity against CDK4 ([7]; Table 38) | IC50 [1, 10] [nM] | IC50 [4, 10] [nM] | CDK2 Fold selectivity against CDK1 ([4]; Table 36) | IC50 [5, 10] [nM] | CDK2 Fold selectivity against CDK6 ([5]; Table 36) | IC50 [6, 11] [nM] | CDK2 Fold selectivity against CDK9 ([6]; Table 36) | IC50 [7, 10] [nM] | CDK2 Fold selectivity against CDK4 ([7]; Table 36) | other results
1 | O=C1NC2CC(COc3cc(ccn3)Nc3[nH]nc(c3F)C3C[C@H](F)[C@@H](C3)O1)C2 [Compound 232, (1^1S,1^3R,1^4S,7^1R,7^3S,E)-1^4,2^4-difluoro-2^1H-5,10-dioxa-3,8-diaza-4(4,2)-pyridina-2(3,5)-pyrazola-1(1,3)-cyclopentana-7(1,3)-cyclobutanacyclodecaphan-9-one] | 10 to 50 | 50 to 250 | 10 to 50 | 100 to 500 | E (E, <20) | 100 to 500 | E (E, <20) | 100 to 500 | E (E, <20) | 50 to 100 | E (E, <20) | – | – | – | – | – | – | – | – | – | –
2 | O=C1NC2CC(COc3cc(ccn3)Nc3cc(n[nH]3)C3C[C@H](F)[C@@H](C3)O1)C2 [Compound 230, (1^1S,1^3R,1^4S,7^1R,7^3S,Z)-1^4-fluoro-2^1H-5,10-dioxa-3,8-diaza-4(4,2)-pyridina-2(3,5)-pyrazola-1(1,3)-cyclopentana-7(1,3)-cyclobutanacyclodecaphan-9-one] | ≤ 10 | 10 to 50 | 10 to 50 | 10 to 50 | E (E, <20) | 10 to 50 | E (E, <20) | 10 to 50 | E (E, <20) | 10 to 50 | E (E, <20) | – | – | – | – | – | – | – | – | – | –
3 | O=C1NC2CC(COc3cc(ccn3)Nc3cc(n[nH]3)C3C[C@@H](F)[C@H](C3)O1)C2 [Compound 229, (1^1R,1^3S,1^4R,7^1S,7^3R,Z)-1^4-fluoro-2^1H-5,10-dioxa-3,8-diaza-4(4,2)-pyridina-2(3,5)-pyrazola-1(1,3)-cyclopentana-7(1,3)-cyclobutanacyclodecaphan-9-one] | ≤ 10 | 10 to 50 | 2 to 10 | 10 to 50 | E (E, <20) | 10 to 50 | E (E, <20) | 100 to 500 | C (C, >50 and ≤100) | 10 to 50 | E (E, <20) | – | – | – | – | – | – | – | – | – | –
4 | [2H]C1([2H])Oc2cc(ccn2)Nc2[nH]nc(c2F)[C@H]2CC[C@H](C2)OC(=O)N[C@H]2C[C@H]1C2 [Compound 221, (1^1S,1^3R,7^1R,7^3S,E)-24-fluoro-2^1H-5,10-dioxa-3,8-diaza-4(4,2)-pyridina-2(3,5)-pyrazola-1(1,3)-cyclopentana-7(1,3)-cyclobutanacyclodecaphan-9-one-6,6-d2] | – | 10 to 50 | 10 to 50 | – | – | – | – | – | – | – | – | ≤ 10 | 50 to 100 | E (E, <20) | 100 to 500 | C (C, >50 and ≤100) | > 500 | B (B, >100 and ≤500) | 100 to 500 | C (C, >50 and ≤100) | –
5 | [2H]C1([2H])Oc2cc(ccn2)Nc2cc(n[nH]2)[C@H]2CC[C@H](C2)OC(=O)N[C@H]2C[C@H]1C2 [Compound 177, (1^1S,1^3R,7^1R,7^3S,Z)-2^1H-5,10-dioxa-3,8-diaza-4(4,2)-pyridina-2(3,5)-pyrazola-1(1,3)-cyclopentana-7(1,3)-cyclobutanacyclodecaphan-9-one-6,6-d2] | – | 10 to 50 | 2 to 10 | – | – | – | – | – | – | – | – | ≤ 10 | 10 to 50 | E (E, <20) | 10 to 50 | E (E, <20) | 50 to 100 | D (D, >20 and ≤50) | 10 to 50 | E (E, <20) | IC50 ([1]; ADP-Glo, 1000 μM ATP, Table 27): ≤ 10 nM; IC50 ([4]; ADP-Glo, 1000 μM ATP, Table 27): 10 to 50 nM; CDK2 Fold selectivity, CDK1 ([4]; CDK2 versus CDK1, Table 28): E (E, <20); IC50 ([5]; ADP-Glo, 1000 μM ATP, Table 27): 100 to 500 nM; CDK2 Fold selectivity, CDK6 ([5]; CDK2 versus CDK6, Table 28): D (D, >20 and ≤50); IC50 ([6]; ADP-Glo, 1000 μM ATP, Table 27, read-out: CDK9-CYCLINT1 IC50): 100 to 500 nM; CDK2 Fold selectivity, CDK9 ([6]; CDK2 versus CDK9, Table 28): D (D, >20 and ≤50); IC50 ([7]; ADP-Glo, 1000 μM ATP, Table 27): 50 to 100 nM; CDK2 Fold selectivity, CDK4 ([7]; CDK2 versus CDK4, Table 28): D (D, >20 and ≤50)
6 | O=C1NC2CC(COc3cc(ccn3)Nc3[nH]nc(c3F)C3C[C@@H](F)[C@H](C3)O1)C2 [Compound 231, (1^1R,1^3S,1^4R,7^1S,7^3R,E)-1^4,2^4-difluoro-2^1H-5,10-dioxa-3,8-diaza-4(4,2)-pyridina-2(3,5)-pyrazola-1(1,3)-cyclopentana-7(1,3)-cyclobutanacyclodecaphan-9-one] | ≤ 10 | 10 to 50 | 10 to 50 | 50 to 100 | E (E, <20) | 100 to 500 | B (B, >100 and ≤500) | > 500 | B (B, >100 and ≤500) | 100 to 500 | B (B, >100 and ≤500) | – | – | – | – | – | – | – | – | – | –
